In this assay the target is PD-1/PD-L1 (Homo sapiens, UniProt Q9NZQ7). Description: TR-FRET PD-1/PD-L1 binding inhibition at the molecular level (free proteins). The note with it: Tag1-PD-L1 and Tag2-PD-1 proteins, twelve concentrations from 200 nM, 2 hours at room temperature, read-out: FRET assay (IC50). The method, then: In order to evaluate the inhibitory activity of the compounds synthesized according to the above Preparation Examples against PD-1/PD-L1 molecules in a free protein state,a TR-FRET (Time-Resolved Fluorescence Energy Transfer) experimetn was performed as described below.
PD-1/PD-L1, sequence (Q9NZQ7 19-238 limits assumed): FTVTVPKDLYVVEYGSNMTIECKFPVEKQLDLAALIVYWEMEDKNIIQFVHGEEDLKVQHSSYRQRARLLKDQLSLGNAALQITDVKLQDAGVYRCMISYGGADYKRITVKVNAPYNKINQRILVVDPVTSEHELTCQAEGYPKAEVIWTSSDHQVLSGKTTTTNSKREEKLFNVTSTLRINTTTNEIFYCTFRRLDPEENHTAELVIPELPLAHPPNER
Specifically, the compounds were prepared in a 96-well plate by serial dilution starting from 200 nM with 1/2 dilutions to obtain a total of twelve concentrations, and 2 µL of each compound solution was added to a 384-well plate. Thereafter, Tag1-PD-L1 protein and Tag2-PD-1 protein were each prepared at a 1x concentration, mixed at a ratio of 1:1, and 8 µL of the mixed solution was added to each well of the 384-well plate containing the compounds. Anti-Tag1 Eu Cryptate reagent and Anti-Tag2 XL665 antibody were each prepared at a 1* concentration, mixed at a ratio of 1:1, and 10 µL of the mixed solution was added to each well of the 384-well plate containing the compounds and proteins, followed by incubation at room temperature for 2 hours. Upon completion of the reaction, fluorescence signals at wavelengths of 620 nm and 665 nm were measured using a microplate reader.
In general terms: In TR-FRET formats the signal depends on donor and acceptor labels being close together.

SMILES strings stand for the structures.

Consider seven compounds from patent EP4755888A1 (ILAb Co., Ltd., priority 2023, dated 2025).

As usually defined, the IC50 is the concentration that inhibits the measured activity by half. As for `O=C(Nc1cccc(-c2cccc(Nc3nc(C(F)F)nc4cc(CN5CC[C@@H](O)C5)cnc34)c2Cl)c1Cl)c1cc2n(n1)CCC[C@@H]2N1CC(C(=O)O)C1` (stereo in doubt) [Compound 262, 1-((S)-2-((2,2'-dichloro-3'-((2-(difluoromethyl)-7-(((R)-3-hydroxypyrrolidin-1-yl)methyl)pyrido[3,2-d]pyrimidin-4-yl)amino)-[1,1'-biphenyl]-3-yl)carbamoyl)-4,5,6,7-tetrahydropyrazolo[1,5-a]pyridin-4-yl)azetidine-3-carboxylic acid], the IC50 was 10 to 100 nM.

As to `Cc1c(NC(=O)c2cc3n(n2)CCC[C@@H]3N2CCC(O)CC2)cccc1-c1cccc(Nc2nc(C(F)(F)F)nc3cccnc23)c1C` (stereo in doubt) [Compound 286, (S)-N-(2,2'-dimethyl-3'-((2-(trifluoromethyl)pyrido[3,2-d]pyrimidin-4-yl)amino)-[1,1'-biphenyl]-3-yl)-4-(4-hydroxypiperidin-1-yl)-4,5,6,7-tetrahydropyrazolo[1,5-a]pyridine-2-carboxamide], the IC50 is 10 to 100 nM.

With `O=C(Nc1cccc(-c2cccc(Nc3nc(C(F)F)nc4cccnc34)c2Cl)c1Cl)c1cc2n(n1)CCC[C@@H]2N1CCC(C(=O)O)CC1` (stereo in doubt) [Compound 290, (S)-1-(2-((2,2'-dichloro-3'-((2-(difluoromethyl)pyrido[3,2-d]pyrimidin-4-yl)amino)-[1,1'-biphenyl]-3-yl)carbamoyl)-4,5,6,7-tetrahydropyrazolo[1,5-a]pyridin-4-yl)piperidine-4-carboxylic acid], the IC50 lay in the range of 10 to 100 nM.

Take `O=C(O)CN[C@H]1CCCn2nc(C(=O)Nc3cccc(-c4cccc(Nc5nc(C(F)F)nc6cc(CN7CC[C@@H](O)C7)cnc56)c4Cl)c3Cl)cc21` (stereo in doubt) [Compound 294, 2-(((S)-2-((2,2'-dichloro-3'-((2-(difluoromethyl)-7-(((R)-3-hydroxypyrrolidin-1-yl)methyl)pyrido[3,2-d]pyrimidin-4-yl)amino)-[1,1'-biphenyl]-3-yl)carbamoyl)-4,5,6,7-tetrahydropyrazolo[1,5-a]pyridin-4-yl)amino)acetic acid]: the IC50 lay within 10 to 100 nM.

For `CC(C)c1nc(Nc2cccc(-c3cccc(NC(=O)c4cc5n(n4)CCC[C@@H]5N4CCC(C(=O)O)CC4)c3Cl)c2Cl)c2ncccc2n1` (stereo in doubt) [Compound 298, (S)-1-(2-((2,2'-dichloro-3'-((2-isopropylpyrido[3,2-d]pyrimidin-4-yl)amino)-[1,1'-biphenyl]-3-yl)carbamoyl)-4,5,6,7-tetrahydropyrazolo[1,5-a]pyridin-4-yl)piperidine-4-carboxylic acid], the IC50 lay in the range of 10 to 100 nM.

On to `CC(C)c1nc(Nc2cccc(-c3cccc(NC(=O)c4cc5n(n4)CCC[C@@H]5NC(C)(C)C(=O)O)c3Cl)c2Cl)c2ncccc2n1` (stereo in doubt) [Compound 300, (S)-2-((2-((2,2'-dichloro-3'-((2-isopropyl-pyrido[3,2-d]pyrimidin-4-yl)amino)-[1,1'-biphenyl]-3-yl)carbamoyl)-4,5,6,7-tetrahydropyrazolo[1,5-a]pyridin-4-yl)amino)-2-methylpropanoic acid], for which the 50% inhibitory concentration (IC50) was 10 to 100 nM.

As to `O=C(Nc1cccc(-c2cccc(Nc3nc(C(F)F)nc4cccnc34)c2Cl)c1Cl)c1cc2n(n1)CCC[C@@H]2N1CCC(O)CC1` (stereo in doubt) [Compound 306, (S)-N-(2,2'-dichloro-3'-((2-(difluoromethyl)pyrido[3,2-d]pyrimidin-4-yl)amino)-[1,1'-biphenyl]-3-yl)-4-(4-hydroxypiperidin-1-yl)-4,5,6,7-tetrahydropyrazolo[1,5-a]pyridine-2-carboxamide], the IC50 lay within 10 to 100 nM.
